Data: US9993494B2, “Compositions and methods for treating fibrotic disease” (eFFECTOR Therapeutics, Inc., priority 2014, dated 2018)

Key:
[1] = tested on: normal human lung fibroblasts; test: Procollagen Type 1 C-Peptide (PIPC) EIA in culture media of TGFβ-treated fibroblasts; format: cell-based; settings: for % Renormalization Collagen: fibroblasts treated with TGFβ, procollagen ELISA
Experimental: (§1) Briefly, normal human lung fibroblasts (Lonza #CC-2512; cell passage numbers 2 through 5 were used for all experiments) were seeded (Day 0) and cultured in Dulbecco's modified Eagle medium (DMEM) supplemented with 10% fetal bovine serum (FBS), penicillin, streptomycin and glutamax (Invitrogen) at 37° C. in a humidified incubator with 5% CO2 overnight. On Day 1, cells were harvested, washed with phosphate buffered saline (PBS), and then incubated for 48 hours in fresh serum-free DMEM supplemented with penicillin, streptomycin, and glutamax.
(§2) After this 24 hour incubation, procollagen type 1 levels were measured by collecting culture media, centrifuging to pellet cellular debris, and stored at −80° C. Procollagen Type 1 C-Peptide (PIPC) was quantified using the (PIP) EIA kit (Clontech, Cat. No. MK101) according to manufacturer's instructions. The TGFβ-treated fibroblasts of this example were examined by ribosomal profiling (about 6×10^6 cells/10 cm plate) and western blot analysis (about 1×10^6 cells/well of a 6-well plate).
as §1, with “(Lonza;” for “(Lonza #CC-2512;”, “CO2 conditions” for “CO2”, “glutamax. On Day 3, cells were harvested, resuspended in fresh serum-free DMEM containing silvestrol (1, 5, 10, 75, 100, 500, or 1000 nM) and 10 ng/ml TGFβ, and cultured for 24 hours. Controls included untreated cells and cells treated with only TGFβ.” for “glutamax.”
as §2, with “kit (Clontech)” for “kit (Clontech, Cat. No. MK101)”, “example are” for “example were”
The levels of α-SMA and procollagen type 1, markers of fibroblast transdifferentiation into myofibroblasts and a surrogate for fibrotic disease progression, were measured after a 24 hour incubation of fibroblasts in the presence or absence of TGFβ sieIF4A1 or siCont. The knockdown efficiency was determined by quantitating the eIF4A mRNA level by qPCR (data not shown) and assessing the protein level by western analysis (see FIG. 11).

[2] = tested on: normal human lung fibroblasts; test: Western blot of α-smooth muscle actin (α-SMA) in TGFβ-treated fibroblasts; format: cell-based; settings: for TGFβ-induced α-SMA protein level / % Renormalization α-SMA: western blot; for % Renormalization α-SMA: fibroblasts treated with TGFβ
Experimental: as §1, §2
(§3) TGFβ-dependent activation of the PI3K/Akt/mTOR and ERK pathways were also examined by western blot analysis (about 1×10^6 cells/well from a 6-well plate). Briefly, cells were washed with PBS and lysed in 1× cell lysis buffer (Cell Signaling Technology, Inc., Danvers, Mass.) for 15 minutes at 4° C. Lysates were briefly sonicated, clarified by centrifugation for 15 minutes at 14,000 rpm, and then supernatants were collected. Protein concentration in the soluble fraction was determined by BCA protein assay (Thermo Scientific, Rockford, Ill.). Samples of protein (20 μg) were resolved on 4-20% Bis-Tris gradient gel (Invitrogen, Carlsbad, Calif.) and transferred to nitrocellulose membrane. The resulting blots were blocked for 1 hour at room temperature with Odyssey blocking solution (LI-COR) and then incubated with primary antibodies at 4° C. overnight. The following day, each blot was washed three times for 10 minutes in TBST, and then incubated with goat anti-rabbit fluorescent conjugated secondary antibody (IRDye 800 CW at 1:20,000; LI-COR) for 1 hour at room temperature. The blots were washed and scanned, and then specific proteins were detected by using the LI-COR Odyssey infrared imager. The following antibodies were used at 1:1000 dilution: anti-α-actin (Sigma #A2547), anti-phospho-4EBP(Ser65), anti-phospho-rpS6(Ser235/236)(#4858), anti-phospho-ERK1/2(Thr202/Tyr204)(#4370), anti-phospho-p70S6K(Thr421/Ser424)(#9204), anti-phospho-pAKT(Ser473), anti-phospho-MNK(Thr197/202), and anti-β-actin (#4970). Unless otherwise indicated, the antibodies were from Cell Signaling Technology, Inc. (Danvers, Mass.).
as §1, with “(Lonza;” for “(Lonza #CC-2512;”, “CO2 conditions” for “CO2”, “glutamax. On Day 3, cells were harvested, resuspended in fresh serum-free DMEM containing silvestrol (1, 5, 10, 75, 100, 500, or 1000 nM) and 10 ng/ml TGFβ, and cultured for 24 hours. Controls included untreated cells and cells treated with only TGFβ.” for “glutamax.”
as §2, with “kit (Clontech)” for “kit (Clontech, Cat. No. MK101)”, “example are” for “example were”

[3] = tested on: AKT, 4EBP, S6K, and S6 of the mTOR pathway; test: Western blot of TGFβ-dependent phosphorylation of PI3K/Akt/mTOR and ERK pathway proteins; format: cell-based, human; settings: PP242 0.625 μM, co-incubation with TGFβ, FIG. 2
Experimental: as §3, with “The following antibodies were used at 1:1000 dilution: anti-α-actin (Sigma #A2547), anti-phospho-4EBP(Ser65), anti-phospho-rpS6(Ser235/236)(#4858), anti-phospho-ERK1/2(Thr202/Tyr204)(#4370), anti-phospho-p70S6K(Thr421/Ser424)(#9204), anti-phospho-pAKT(Ser473), anti-phospho-MNK(Thr197/202), and anti-β-actin (#4970). Unless otherwise indicated, the antibodies were from Cell Signaling Technology, Inc. (Danvers, Mass.).” left out

Compound	% Renormalization Collagen ([1]; 24 hours)	TGFβ-induced α-SMA protein level ([2]; 10 ng/ml TGFβ, 24 hours)	α-SMA level ([2]; PP242 0.625 μM, co-incubation with TGFβ, FIG. 2)	% Renormalization α-SMA ([2]; 24 hours)	TGFβ-dependent increases in phosphorylation of AKT, 4EBP, S6K, and S6 [3]	EC50 ([1]; Homo sapiens, Fibroblast, 24 h, read-out: EC50 for blocking the TGFβ-induced increase in procollagen production)	extent of inhibition of procollagen at higher concentrations, of untreated TGFβ-transformed myofibroblasts ([1]; higher concentrations, saturable, 10 ng/ml TGFβ, 24 hours)	inhibition of procollagen relative to untreated, untransformed control fibroblasts ([1]; higher concentrations, 10 ng/ml TGFβ, 24 hours)	ratio of α-SMA to β-actin at higher silvestrol concentrations ([2]; 10 ng/ml TGFβ, 24 hours, FIG. 10)	EC50 ([2]; Homo sapiens, Fibroblast, 24 h, read-out: EC50 for reduction of the α-SMA protein level)
CC(C)n1nc(-c2cc3cc(O)ccc3[nH]2)c2c(N)ncnc21 [PP242]	+++ (+++ = >60%)	reduction of the α-SMA protein level in a dose dependent manner	decrease in α-SMA to pretreatment levels	+++ (+++ = >60%)	sufficient to abolish	–	–	–	–	–
COC(=O)[C@H]1[C@@H](O)[C@@]2(O)c3c(OC)cc(O[C@@H]4O[C@@H]([C@H](O)CO)CO[C@H]4OC)cc3O[C@@]2(c2ccc(OC)cc2)[C@@H]1c1ccccc1 [Silvestrol]	+++ (+++ = >60%)	reduction of the α-SMA protein level in a dose dependent manner	–	+++ (+++ = >60%)	–	~12 nM	about 90%	about 80%	the same as in untransformed, untreated fibroblasts	~11 nM
Cc1ccc(=O)n(-c2ccccc2)c1 [pirfenidone, 5-methyl-1-phenylpyridin-2-one]	+++ (+++ = >60%)	–	–	+++ (+++ = >60%)	–	–	–	–	–	–
CC(C=CC(=O)NO)=CC(C)C(=O)c1ccc(N(C)C)cc1 (stereo not shown) [TSA, 7-[4-(dimethylamino)phenyl]-N-hydroxy-4,6-dimethyl-7-oxohepta-2,4-dienamide]	+++ (+++ = >60%)	–	–	++ (++ = 30-60%)	–	–	–	–	–	–
Cc1cc(C2CCCCC2)n(O)c(=O)c1.NCCO [CPX, ciclopirox oloamine]	+++ (+++ = >60%)	–	–	+++ (+++ = >60%)	–	–	–	–	–	–
